Test results: ChEMBL document CHEMBL3885861, “Open TG-GATES”

Species: Rattus norvegicus
Experiment: Open TG-GATES - Regimen: Single
Type: toxicity, organism-based, Sprague-Dawley
Design: regimen Single, gender Male, age 6 weeks
Details: in vivo, po, 3 mg/kg, route gavage, dose level Low; for APTT / Bas / Eos / Fbg / Hb / Ht / Lym / MCH / MCHC / MCV / Mono / Neu / PT / Plat / RBC / Ret / WBC: tissue Blood; for KIDNEY_L / KIDNEY_R / KIDNEY_TOTAL: tissue Kidney; for LIVER: tissue Liver; for A/G / ALP / ALT / AST / BUN / CRE / Ca / Cl / DBIL / GLC / IP / K / LDH / Na / PL / RALB / TBIL / TC / TG / TP / gamma-GTP: tissue Plasma

**Q.** What does the source list for CN(C)CCC(c1ccc(Cl)cc1)c1ccccn1 (configuration not stated) [CHLORPHENIRAMINE]?
**A.** TERMINAL_BW (3 h): 195.7 g; APTT (3 h): 18 s; Bas (3 h): 0%; Eos (3 h): 0.6%; Fbg (3 h): 281.4 mg/dL; Hb (3 h): 13.4 g/dL; Ht (3 h): 41.7%; Lym (3 h): 72.6%; MCH (3 h): 20.9 pg; MCHC (3 h): 32.2%; MCV (3 h): 64.9 fL; Mono (3 h): 3.4%; Neu (3 h): 22.4%; PT (3 h): 15 s; Plat (3 h): 124.5 x10_4/uL; RBC (3 h): 642.6 x10_4/ul; Ret (3 h): 8.9%; WBC (3 h): 84.7 x10_2/uL; KIDNEY_L (3 h): 0.9 g; KIDNEY_R (3 h): 0.8 g; KIDNEY_TOTAL (3 h): 1.7 g; LIVER (3 h): 8.5 g; A/G (3 h): 0.9; ALP (3 h): 1618.2 IU/L; ALT (3 h): 47 IU/L; AST (3 h): 76 IU/L; BUN (3 h): 9.2 mg/dL; CRE (3 h): 0.2 mg/dL; Ca (3 h): 10.9 mg/dL; Cl (3 h): 106 meq/L; DBIL (3 h): 0.01 mg/dL; GLC (3 h): 179.8 mg/dL; IP (3 h): 10.4 mg/dL; K (3 h): 4.1 meq/L; LDH (3 h): 195 IU/L; Na (3 h): 143.6 meq/L; PL (3 h): 140.2 mg/dL; RALB (3 h): 2.5 g/dL; TBIL (3 h): 0.048 mg/dL; TC (3 h): 77.8 mg/dL; TG (3 h): 53.4 mg/dL; TP (3 h): 5.5 g/dL; gamma-GTP (3 h): 2 IU/L; TERMINAL_BW (6 h): 194.4 g; APTT (6 h): 20 s; Bas (6 h): 0.4%; Eos (6 h): 1%; Fbg (6 h): 296.2 mg/dL; Hb (6 h): 13.2 g/dL; Ht (6 h): 41.3%; Lym (6 h): 75.8%; MCH (6 h): 20.8 pg; MCHC (6 h): 31.9%; MCV (6 h): 65.1 fL; Mono (6 h): 3.4%; Neu (6 h): 19.2%; PT (6 h): 14.9 s; Plat (6 h): 119.3 x10_4/uL; RBC (6 h): 633.8 x10_4/ul; Ret (6 h): 9.5%; WBC (6 h): 83.2 x10_2/uL; KIDNEY_L (6 h): 0.9 g; KIDNEY_R (6 h): 0.9 g; KIDNEY_TOTAL (6 h): 1.8 g; LIVER (6 h): 8.1 g; A/G (6 h): 0.9; ALP (6 h): 1343.4 IU/L; ALT (6 h): 41.4 IU/L; AST (6 h): 71.2 IU/L; BUN (6 h): 7.8 mg/dL; CRE (6 h): 0.2 mg/dL; Ca (6 h): 10.5 mg/dL; Cl (6 h): 108.4 meq/L; DBIL (6 h): 0.004 mg/dL; GLC (6 h): 176 mg/dL; IP (6 h): 10.4 mg/dL; K (6 h): 4.1 meq/L; LDH (6 h): 200 IU/L; Na (6 h): 144.4 meq/L; PL (6 h): 150.2 mg/dL; RALB (6 h): 2.5 g/dL; TBIL (6 h): 0.052 mg/dL; TC (6 h): 89.6 mg/dL; TG (6 h): 42.6 mg/dL; TP (6 h): 5.4 g/dL; gamma-GTP (6 h): 1.4 IU/L; TERMINAL_BW (9 h): 194.2 g; APTT (9 h): 17.4 s; Bas (9 h): 0%; Eos (9 h): 1%; Fbg (9 h): 288.2 mg/dL; Hb (9 h): 12.8 g/dL; Ht (9 h): 39.6%; Lym (9 h): 77.8%; MCH (9 h): 20.9 pg; MCHC (9 h): 32.4%; MCV (9 h): 64.7 fL; Mono (9 h): 2.8%; Neu (9 h): 18%; PT (9 h): 14.8 s; Plat (9 h): 119.5 x10_4/uL; RBC (9 h): 612.4 x10_4/ul; Ret (9 h): 9.2%; WBC (9 h): 71.4 x10_2/uL; KIDNEY_L (9 h): 0.9 g; KIDNEY_R (9 h): 0.9 g; KIDNEY_TOTAL (9 h): 1.8 g; LIVER (9 h): 7.7 g; A/G (9 h): 0.9; ALP (9 h): 1240.8 IU/L; ALT (9 h): 40.6 IU/L; AST (9 h): 71 IU/L; BUN (9 h): 8.2 mg/dL; CRE (9 h): 0.1 mg/dL; Ca (9 h): 10.3 mg/dL; Cl (9 h): 105.8 meq/L; DBIL (9 h): 0.006 mg/dL; GLC (9 h): 165.2 mg/dL; IP (9 h): 10.2 mg/dL; K (9 h): 3.9 meq/L; LDH (9 h): 139 IU/L; Na (9 h): 142.8 meq/L; PL (9 h): 143 mg/dL; RALB (9 h): 2.5 g/dL; TBIL (9 h): 0.046 mg/dL; TC (9 h): 85.4 mg/dL; TG (9 h): 37.2 mg/dL; TP (9 h): 5.3 g/dL; gamma-GTP (9 h): 1 IU/L; TERMINAL_BW (24 h): 214.2 g; APTT (24 h): 15.8 s; Bas (24 h): 0%; Eos (24 h): 1%; Fbg (24 h): 291.4 mg/dL; Hb (24 h): 12.9 g/dL; Ht (24 h): 40.3%; Lym (24 h): 78.2%; MCH (24 h): 20.4 pg; MCHC (24 h): 32.1%; MCV (24 h): 63.5 fL; Mono (24 h): 3%; Neu (24 h): 16.4%; PT (24 h): 14.6 s; Plat (24 h): 123.3 x10_4/uL; RBC (24 h): 634.4 x10_4/ul; Ret (24 h): 7.9%; WBC (24 h): 88.7 x10_2/uL; KIDNEY_L (24 h): 0.9 g; KIDNEY_R (24 h): 0.9 g; KIDNEY_TOTAL (24 h): 1.8 g; LIVER (24 h): 9.9 g; A/G (24 h): 0.9; ALP (24 h): 1572.2 IU/L; ALT (24 h): 47.4 IU/L; AST (24 h): 72.6 IU/L; BUN (24 h): 14.4 mg/dL; CRE (24 h): 0.2 mg/dL; Ca (24 h): 11.2 mg/dL; Cl (24 h): 105.6 meq/L; DBIL (24 h): 0.016 mg/dL; GLC (24 h): 188.6 mg/dL; IP (24 h): 8.9 mg/dL; K (24 h): 4.5 meq/L; LDH (24 h): 131.6 IU/L; Na (24 h): 142.8 meq/L; PL (24 h): 150.4 mg/dL; RALB (24 h): 2.6 g/dL; TBIL (24 h): 0.05 mg/dL; TC (24 h): 81.6 mg/dL; TG (24 h): 80.8 mg/dL; TP (24 h): 5.7 g/dL; gamma-GTP (24 h): 1 IU/L
